# Experimental data from ChEMBL document CHEMBL1201862, “PubChem BioAssay data set” (2004).
#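 Cultured in 96-well plates, cells were exposed to test compound for 48 hours across five concentrations. Abbreviation: GI50, concentration required for 50% inhibition of growth.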 Calls of active or inactive are those of the source. Rule as the data show it: active = GI50 up to about 1.1 µM and inactive = higher.
# Columns and labels:
# Assay in all cases: growth of human tumour cells (NCI), 48 h
# M14 = tested on: M14
# HCC 2998 = tested on: HCC 2998
# IGROV-1 = tested on: IGROV-1
# NCI/ADR-RES = tested on: NCI/ADR-RES
# SN12C = tested on: SN12C
# DU-145 = tested on: DU-145
# UACC-257 = tested on: UACC-257
# Hs-578T = tested on: Hs-578T
# MDA-N = tested on: MDA-N
# EKVX = tested on: EKVX
# HL-60 = tested on: HL-60
# RPMI-8226 = tested on: RPMI-8226
# KM12 = tested on: KM12
# HT-29 = tested on: HT-29
# RXF 393 = tested on: RXF 393
# MDA-MB-231 = tested on: MDA-MB-231
# PC-3 = tested on: PC-3
# NCI-H522 = tested on: NCI-H522
# OVCAR-8 = tested on: OVCAR-8
# HCT-15 = tested on: HCT-15
# SW-620 = tested on: SW-620
# HOP-62 = tested on: HOP-62
# SF-268 = tested on: SF-268
# U-251 = tested on: U-251
# NCI-H23 = tested on: NCI-H23
# SK-MEL-5 = tested on: SK-MEL-5
# CAKI-1 = tested on: CAKI-1
# SNB-19 = tested on: SNB-19
# SK-MEL-28 = tested on: SK-MEL-28
# 786-0 = tested on: 786-0
# SF-295 = tested on: SF-295
# MOLT-4 = tested on: MOLT-4
# LOX IMVI = tested on: LOX IMVI
# ACHN = tested on: ACHN
# T47D = tested on: T47D
# OVCAR-5 = tested on: OVCAR-5
# MDA-MB-435 = tested on: MDA-MB-435
# A498 = tested on: A498
# SF-539 = tested on: SF-539
# CCRF-CEM = tested on: CCRF-CEM
# Malme-3M = tested on: Malme-3M
# HCT-116 = tested on: HCT-116
# TK-10 = tested on: TK-10
# A549 = tested on: A549
# NCI-H226 = tested on: NCI-H226
# K562 = tested on: K562
# SNB-75 = tested on: SNB-75
# COLO 205 = tested on: COLO 205
# HOP-92 = tested on: HOP-92
# NCI-H460 = tested on: NCI-H460
# OVCAR-3 = tested on: OVCAR-3
# SR = tested on: SR
# OVCAR-4 = tested on: OVCAR-4
# BT-549 = tested on: BT-549
# UACC-62 = tested on: UACC-62
# SK-OV-3 = tested on: SK-OV-3
# SK-MEL-2 = tested on: SK-MEL-2
# MCF7 = tested on: MCF7
# UO-31 = tested on: UO-31
structure (smiles),measurement,setting,value
CCN(CC)CCSc1nc2c(c(=N)n1-c1ccccc1)c(=S)n(-c1ccccc1)c(=S)n2-c1ccccc1,GI50,M14,2.16 µM (inactive)
same,GI50,HCC 2998,1.58 µM (inactive)
same,GI50,IGROV-1,1.64 µM (inactive)
same,GI50,NCI/ADR-RES,5.36 µM (inactive)
same,GI50,SN12C,1.73 µM (inactive)
same,GI50,DU-145,1.67 µM (inactive)
same,GI50,UACC-257,1.72 µM (inactive)
same,GI50,Hs-578T,2.58 µM (inactive)
same,GI50,MDA-N,2.36 µM (inactive)
same,GI50,EKVX,2.54 µM (inactive)
same,GI50,HL-60,0.0559 µM (active)
same,GI50,RPMI-8226,0.275 µM (active)
same,GI50,KM12,5.69 µM (inactive)
same,GI50,HT-29,1.77 µM (inactive)
same,GI50,RXF 393,1.36 µM (inactive)
same,GI50,MDA-MB-231,1.83 µM (inactive)
same,GI50,PC-3,1.8 µM (inactive)
same,GI50,NCI-H522,0.843 µM (active)
same,GI50,OVCAR-8,1.71 µM (inactive)
same,GI50,HCT-15,1.77 µM
same,GI50,SW-620,1.67 µM (inactive)
same,GI50,HOP-62,2.85 µM (inactive)
same,GI50,SF-268,1.67 µM (inactive)
same,GI50,U-251,2.37 µM (inactive)
same,GI50,NCI-H23,3.69 µM (inactive)
same,GI50,SK-MEL-5,3.24 µM (inactive)
same,GI50,CAKI-1,1.5 µM (inactive)
same,GI50,SNB-19,18.3 µM (inactive)
same,GI50,SK-MEL-28,3.62 µM (inactive)
same,GI50,786-0,0.441 µM (active)
same,GI50,SF-295,12.8 µM (inactive)
same,GI50,MOLT-4,0.194 µM (active)
same,GI50,LOX IMVI,1.46 µM (inactive)
same,GI50,ACHN,1.74 µM (inactive)
same,GI50,T47D,2.61 µM (inactive)
same,GI50,OVCAR-5,14.9 µM (inactive)
same,GI50,MDA-MB-435,1.85 µM (inactive)
same,GI50,A498,8.85 µM (inactive)
same,GI50,SF-539,4.45 µM (inactive)
same,GI50,CCRF-CEM,0.0843 µM (active)
same,GI50,Malme-3M,1.55 µM (inactive)
same,GI50,HCT-116,2.06 µM (inactive)
same,GI50,TK-10,1.73 µM (inactive)
same,GI50,A549,2.08 µM (inactive)
same,GI50,NCI-H226,25.7 µM (inactive)
same,GI50,K562,0.601 µM (active)
same,GI50,SNB-75,2.19 µM (inactive)
same,GI50,COLO 205,1.66 µM (inactive)
same,GI50,HOP-92,1.41 µM (inactive)
same,GI50,NCI-H460,1.91 µM (inactive)
same,GI50,OVCAR-3,1.64 µM (inactive)
same,GI50,SR,0.257 µM (active)
same,GI50,OVCAR-4,3.47 µM (inactive)
same,GI50,BT-549,2.23 µM (inactive)
same,GI50,UACC-62,1.71 µM (inactive)
same,GI50,SK-OV-3,6.65 µM (inactive)
same,GI50,SK-MEL-2,7.55 µM (inactive)
CC(=O)NC1C(OCc2ccccc2)OC(CO)C(O)C1OC(C)C(=O)NC(C(=O)NC(CCC(=O)NCCCNc1ccc([N+](=O)[O-])c2[nH]c3ccccc3c(=O)c12)C(N)=O)C(C)C (stereo unspecified),GI50,M14,51.9 µM (inactive)
same,GI50,IGROV-1,> 100 µM (inactive)
same,GI50,NCI/ADR-RES,> 100 µM (inactive)
same,GI50,SN12C,> 100 µM (inactive)
same,GI50,DU-145,> 100 µM (inactive)
same,GI50,UACC-257,> 100 µM (inactive)
same,GI50,Hs-578T,> 100 µM (inactive)
same,GI50,MDA-N,> 100 µM (inactive)
same,GI50,EKVX,> 100 µM (inactive)
same,GI50,HL-60,> 100 µM (inactive)
same,GI50,KM12,> 100 µM (inactive)
same,GI50,HT-29,> 100 µM (inactive)
same,GI50,MDA-MB-231,40.6 µM (inactive)
same,GI50,PC-3,> 100 µM (inactive)
same,GI50,NCI-H522,91.6 µM (inactive)
same,GI50,OVCAR-8,> 100 µM (inactive)
same,GI50,HCT-15,> 100 µM
same,GI50,SW-620,> 100 µM (inactive)
same,GI50,HOP-62,> 100 µM (inactive)
same,GI50,SF-268,> 100 µM (inactive)
same,GI50,U-251,> 100 µM (inactive)
same,GI50,NCI-H23,> 100 µM (inactive)
same,GI50,SK-MEL-5,> 100 µM (inactive)
same,GI50,CAKI-1,> 100 µM (inactive)
same,GI50,SNB-19,> 100 µM (inactive)
same,GI50,SK-MEL-28,> 100 µM (inactive)
same,GI50,786-0,> 100 µM (inactive)
same,GI50,SF-295,> 100 µM (inactive)
same,GI50,MOLT-4,> 100 µM (inactive)
same,GI50,LOX IMVI,> 100 µM (inactive)
same,GI50,MCF7,> 100 µM (inactive)
same,GI50,ACHN,> 100 µM (inactive)
same,GI50,T47D,> 100 µM (inactive)
same,GI50,OVCAR-5,59.6 µM (inactive)
same,GI50,MDA-MB-435,> 100 µM (inactive)
same,GI50,A498,> 100 µM (inactive)
same,GI50,UO-31,> 100 µM (inactive)
same,GI50,SF-539,> 100 µM (inactive)
same,GI50,CCRF-CEM,> 100 µM (inactive)
same,GI50,HCT-116,> 100 µM (inactive)
same,GI50,TK-10,> 100 µM (inactive)
same,GI50,A549,> 100 µM (inactive)
same,GI50,NCI-H226,> 100 µM (inactive)
same,GI50,SNB-75,> 100 µM (inactive)
same,GI50,COLO 205,> 100 µM (inactive)
same,GI50,HOP-92,> 100 µM (inactive)
same,GI50,NCI-H460,> 100 µM (inactive)
same,GI50,OVCAR-3,> 100 µM (inactive)
same,GI50,OVCAR-4,> 100 µM (inactive)
same,GI50,BT-549,> 100 µM (inactive)
same,GI50,UACC-62,> 100 µM (inactive)
same,GI50,SK-OV-3,> 100 µM (inactive)
same,GI50,SK-MEL-2,> 100 µM (inactive)
CC1=CCC[C@@](C)(O)[C@@H]2C[C@H]3C(CSc4ccccc4)C(=O)O[C@H]3[C@@H](O2)[C@H](C)CCC1 (stereo partly specified),GI50,M14,13.7 µM (inactive)
same,GI50,HCC 2998,15.8 µM (inactive)
same,GI50,IGROV-1,14.5 µM (inactive)
same,GI50,SN12C,38.2 µM (inactive)
same,GI50,DU-145,25.6 µM (inactive)
same,GI50,UACC-257,18.6 µM (inactive)
same,GI50,Hs-578T,18.4 µM (inactive)
same,GI50,MDA-N,24.5 µM (inactive)
same,GI50,EKVX,18.6 µM (inactive)
same,GI50,HL-60,> 100 µM (inactive)
same,GI50,RPMI-8226,7.43 µM (inactive)
same,GI50,KM12,9.18 µM (inactive)
same,GI50,RXF 393,13.7 µM (inactive)
same,GI50,MDA-MB-231,28.1 µM (inactive)
same,GI50,PC-3,6.62 µM (inactive)
same,GI50,NCI-H522,10.7 µM (inactive)
same,GI50,OVCAR-8,13.7 µM (inactive)
same,GI50,HCT-15,19 µM
same,GI50,SW-620,27 µM (inactive)
same,GI50,HOP-62,16.6 µM (inactive)
same,GI50,SF-268,34 µM (inactive)
same,GI50,U-251,21.2 µM (inactive)
same,GI50,NCI-H23,16.8 µM (inactive)
same,GI50,SK-MEL-5,14.5 µM (inactive)
same,GI50,CAKI-1,25.1 µM (inactive)
same,GI50,SNB-19,13.2 µM (inactive)
same,GI50,SK-MEL-28,21 µM (inactive)
same,GI50,786-0,20.3 µM (inactive)
same,GI50,SF-295,12 µM (inactive)
same,GI50,MOLT-4,7.13 µM (inactive)
same,GI50,LOX IMVI,15.9 µM (inactive)
same,GI50,MCF7,13.8 µM (inactive)
same,GI50,ACHN,12.9 µM (inactive)
same,GI50,T47D,22.2 µM (inactive)
same,GI50,OVCAR-5,15.9 µM (inactive)
same,GI50,MDA-MB-435,20.3 µM (inactive)
same,GI50,A498,18 µM (inactive)
same,GI50,UO-31,11.8 µM (inactive)
same,GI50,SF-539,16.4 µM (inactive)
same,GI50,CCRF-CEM,> 100 µM (inactive)
same,GI50,Malme-3M,13.7 µM (inactive)
same,GI50,HCT-116,21.4 µM (inactive)
same,GI50,TK-10,17.3 µM (inactive)
same,GI50,A549,10.5 µM (inactive)
same,GI50,K562,9.08 µM (inactive)
same,GI50,SNB-75,13.6 µM (inactive)
same,GI50,COLO 205,18.1 µM (inactive)
same,GI50,HOP-92,26.9 µM (inactive)
same,GI50,NCI-H460,6.1 µM (inactive)
same,GI50,OVCAR-3,13 µM (inactive)
same,GI50,SR,6.35 µM (inactive)
same,GI50,OVCAR-4,19.8 µM (inactive)
same,GI50,BT-549,22.7 µM (inactive)
same,GI50,UACC-62,14.8 µM (inactive)
same,GI50,SK-OV-3,21.5 µM (inactive)
same,GI50,SK-MEL-2,17.2 µM (inactive)
